Results published in patent US20100305315A1, “Process for the preparation of 2-(primary/secondary amino)hydrocarbyl)-carbamoyl-7-oxo-2,6-diaza-bicyclo [3.2.0.]heptane-6-sulfonic acid derivatives” (Basilea Pharmaceutica AG, priority 2007, published 2010).

Test: physchem
Settings: 25 °C, organic solvent or mixture

O=C1[C@H]2NCC[C@H]2N1S(=O)(=O)O [(1S,5R)-7-oxo-2,6-diaza-bicyclo[3.2.0]heptane-6-sulfonic acid]
solubility: ≤ 200 mg/mL
